Source: patent publication US5817624A, “Permeation enhancer compositions for increased absorption of therapeutic proteins through the colonic membrane” (Alza Corporation, priority 1995, dated 1998)
Several values for one entry are separate records, joined by “and”; a condition that tells them apart may be missing. Identical values can stand only once. Like-named read-outs stand apart in the source and are kept apart here.

System: fasted anesthetized Sprague-Dawley male rats
Settings: for % Maximum Decrease 0-60 mins (blood glucose): sodium bovine insulin 0.5 mg/kg, 1 mL peanut oil, intracolonic bolus, n = 3-4
Source text: An animal model commonly known as the "intracolonic ligated model" was employed for testing formulations. Surgical preparation of a fasted anesthetized 0.3-0.5 kg Sprague-Dawley male rats proceeded as follows. A segment of proximal colon was isolated and the colon was flushed of fecal materials. The segment was ligated at both ends while a catheter was placed in the lumen and exteriorized above the skin for delivery of test formulation. The colonic contents were flushed out and the colon was returned to the abdomen of the animal. Depending on the experimental set up, the test formulation was added after the segment was filled with 1 mL/kg of 20 mM sodium phosphate buffer, pH 7.4, to more accurately simulate the actual colon environment in a clinical situation.
Rats were allowed to equilibrate for approximately 1 hour after surgical preparation and prior to exposure to each test formulation. Immediately prior to test solution administration, a 0.3-0.5 mL blood sample was taken from the jugular catheter of the rats and analyzed for glucose content using an Ames GlucometerM® blood glucose meter utilizing Glucostix® reagent strips. Withdrawn blood was replaced with an equal volume of heparinized Ringer's. Sodium bovine insulin was formulated to be delivered at a dose of 0.5 mg/kg body weight. Initially, all candidate enhancers were tested at a concentration of 300 mM. […] The solutes (enhancer and insulin) were suspended in 1 mL peanut oil (except where noted) and mixed using a vortex mixer. Test solutions were vortexed immediately prior to aspiration into individual delivery syringes.
After determination of baseline blood glucose levels, the test solution was administered as an intracolonic bolus and delivered at 1 ml/kg adjusting for either the 100 μl or 250 μl dead volume of the colonic catheter. Blood samples obtained from the jugular catheter were taken at 0, 5, 15, 30, 60, 120, 180 and 240 minutes and analyzed for blood glucose concentration. At the end of the 4 hour test period, the rats were euthanized with an overdose of pentobarbital. Colonic segments from each rat were excised and opened longitudinally along the anti-mesenteric border. Each segment was observed macroscopically for irritation and any abnormality noted. The excised colons were placed on graph paper and measured to approximate colonic surface area. Blood glucose dynamics are reported as the percent change from initial blood glucose levels.
Rats were prepared as described in EXAMPLE 1. […] The open symbols denote the formulations delivered in oil whereas the closed symbol denotes the formulation without oil.

Structure (SMILES) | % Maximum Decrease 0-60 mins (blood glucose) (enhancer 300 mM) | other results
COc1ccc(O)c(C(=O)[O-])c1.[Na+] [5-Methoxysalicylic acid, Na salt] | 9% | 
O=C([O-])c1ccccc1.[Na+] [Benzoic acid, Na salt] | 0% | 
[Cl-].[Na+] [NaCl] | 2% | 
Nc1ccc(O)c(C(=O)[O-])c1.[Na+] [5-Amino salicylic acid, Na salt] | 13% | % Maximum Decrease 0-60 mins (blood glucose) (enhancer 100 mM): 13%
O=C([O-])c1cc(O)ccc1O.[Na+] [2,5-Dihydroxybenzoic acid, Na salt] | 1% and 9% | 
Nc1ccc(C(=O)[O-])c(O)c1.[Na+] [4-Amino salicylic acid, Na salt] | 10% | 
O=C([O-])c1ccccc1O.[Na+] [Na Salicylate, sodium salicylate] |  | rats that died (enhancer 250 mM with insulin 0.5 mg/kg in 1/8 mL peanut oil): 2/4; effect on blood glucose levels over a 4 hour period (enhancer 300 mM formulated without insulin): no effect; decrease in fasting blood glucose levels from pre-exposure levels (significance) (enhancer 300 mM with sodium bovine insulin (0.5 mg/kg) and peanut oil): significant decrease; rats that died (enhancer 600 mM with insulin 0.5 mg/kg and peanut oil, death due to low blood glucose levels): 4/4
